Assay: xn = mol fraction of the nth substance listed
Conditions: 101 kPa, Liquid; for viscosity: Falling or rolling sphere viscometry; for mass density: Vibrating tube method

CC(=O)[O-].Cn1cc[nH+]c1 [1-methylimidazolium acetate] + O
Conditions | mass density, 293.15 K [kg/m3] | mass density, 298.15 K [kg/m3] | mass density, 303.15 K [kg/m3] | mass density, 308.15 K [kg/m3] | mass density, 313.15 K [kg/m3] | viscosity, 293.15 K [mPa·s] | viscosity, 298.15 K [mPa·s] | viscosity, 303.15 K [mPa·s] | viscosity, 308.15 K [mPa·s] | viscosity, 313.15 K [mPa·s]
x1 = 0.0496 | 1050.26 | 1047.88 | 1045.35 | 1042.68 | 1039.87 | 2.361 | 2.05 | 1.797 | 1.59 | 1.419
x1 = 0.0999 | 1080.12 | 1076.77 | 1073.32 | 1069.76 | 1066.09 | 4.352 | 3.682 | 3.154 | 2.73 | 2.363
x1 = 0.2007 | 1099.43 | 1095.11 | 1090.72 | 1086.27 | 1081.75 | 8.567 | 7.087 | 5.755 | 4.731 | 4.082
x1 = 0.2985 | 1099.75 | 1095.2 | 1090.61 | 1085.97 | 1081.29 | 11.17 | 9.095 | 7.498 | 6.239 | 5.265
x1 = 0.3986 | 1096.26 | 1091.68 | 1087.07 | 1082.42 | 1077.74 | 11.62 | 9.434 | 7.776 | 6.521 | 5.535
x1 = 0.496 | 1092.17 | 1087.6 | 1083 | 1078.38 | 1073.73 | 11.27 | 9.212 | 7.655 | 6.419 | 5.459
x1 = 0.6467 | 1087.46 | 1082.93 | 1078.39 | 1073.83 | 1069.26 | 10.44 | 8.538 | 7.137 | 6.085 | 5.234
x1 = 0.7954 | 1083.49 | 1079.01 | 1074.5 | 1069.99 | 1065.48 | 9.391 | 7.858 | 6.641 | 5.663 | 4.895
x1 = 0.8987 | 1081.48 | 1077.03 | 1072.55 | 1068.08 | 1063.6 | 8.655 | 7.299 | 6.193 | 5.304 | 4.584

CC(=O)[O-].Cn1cc[nH+]c1 [1-methylimidazolium acetate] + CCCO
Conditions | mass density, 293.15 K [kg/m3] | mass density, 298.15 K [kg/m3] | mass density, 303.15 K [kg/m3] | mass density, 308.15 K [kg/m3] | mass density, 313.15 K [kg/m3] | viscosity, 293.15 K [mPa·s] | viscosity, 298.15 K [mPa·s] | viscosity, 303.15 K [mPa·s] | viscosity, 308.15 K [mPa·s] | viscosity, 313.15 K [mPa·s]
x1 = 0.0504 | 827.73 | 823.56 | 819.35 | 815.11 | 810.83 | 2.22 | 1.974 | 1.753 | 1.566 | 1.402
x1 = 0.0999 | 850.08 | 845.8 | 841.47 | 837.11 | 832.72 | 2.359 | 2.088 | 1.855 | 1.656 | 1.485
x1 = 0.2005 | 891.09 | 886.69 | 882.25 | 877.78 | 873.27 | 2.757 | 2.429 | 2.152 | 1.918 | 1.718
x1 = 0.3005 | 926.35 | 921.89 | 917.41 | 912.89 | 908.35 | 3.202 | 2.795 | 2.481 | 2.206 | 1.973
x1 = 0.4013 | 957.27 | 952.8 | 948.29 | 943.76 | 939.2 | 3.698 | 3.231 | 2.851 | 2.517 | 2.25
x1 = 0.5014 | 984.26 | 979.77 | 975.25 | 970.72 | 966.17 | 4.234 | 3.682 | 3.228 | 2.852 | 2.536
x1 = 0.6501 | 1018.37 | 1013.89 | 1009.37 | 1004.85 | 1000.32 | 5.113 | 4.402 | 3.835 | 3.363 | 2.975
x1 = 0.7946 | 1046.51 | 1042.04 | 1037.55 | 1033.05 | 1028.55 | 6.141 | 5.212 | 4.517 | 3.947 | 3.482
x1 = 0.8952 | 1063.47 | 1059.02 | 1054.56 | 1050.08 | 1045.6 | 7.087 | 6.009 | 5.148 | 4.447 | 3.905

CC(=O)[O-].Cn1cc[nH+]c1 [1-methylimidazolium acetate] + CO
Conditions | mass density, 293.15 K [kg/m3] | mass density, 298.15 K [kg/m3] | mass density, 303.15 K [kg/m3] | mass density, 308.15 K [kg/m3] | mass density, 313.15 K [kg/m3] | viscosity, 293.15 K [mPa·s] | viscosity, 298.15 K [mPa·s] | viscosity, 303.15 K [mPa·s] | viscosity, 308.15 K [mPa·s] | viscosity, 313.15 K [mPa·s]
x1 = 0.05 | 841.99 | 837.15 | 832.29 | 827.39 | 822.47 | 0.818 | 0.758 | 0.704 | 0.657 | 0.615
x1 = 0.1008 | 880.4 | 875.53 | 870.63 | 865.7 | 860.74 | 1.049 | 0.964 | 0.889 | 0.822 | 0.763
x1 = 0.1994 | 936.43 | 931.59 | 926.72 | 921.83 | 916.92 | 1.568 | 1.424 | 1.317 | 1.189 | 1.093
x1 = 0.2997 | 974.67 | 969.87 | 965.05 | 960.22 | 955.37 | 2.134 | 1.936 | 1.747 | 1.585 | 1.445
x1 = 0.4 | 1002.67 | 997.94 | 993.18 | 988.42 | 983.63 | 2.806 | 2.428 | 2.193 | 1.991 | 1.822
x1 = 0.4979 | 1023.14 | 1018.47 | 1013.77 | 1009.07 | 1004.35 | 3.486 | 2.986 | 2.672 | 2.399 | 2.195
x1 = 0.651 | 1046.77 | 1042.19 | 1037.58 | 1032.97 | 1028.34 | 4.706 | 4.006 | 3.541 | 3.133 | 2.81
x1 = 0.8011 | 1063.57 | 1059.06 | 1054.54 | 1050 | 1045.45 | 6.119 | 5.207 | 4.509 | 3.927 | 3.454
x1 = 0.9012 | 1072.29 | 1067.83 | – | 1058.86 | 1054.36 | 7.161 | 6.065 | 5.2 | 4.485 | 3.912

From the NIST ThermoML archive (doi:10.1016/j.jct.2012.01.013)
